Consider 10 compounds from DBAASP.

The structures appear in SMILES notation. Values after ≈ are worked out from the molar mass of the structure shown.

Test systems include Escherichia coli; Pseudomonas aeruginosa; Staphylococcus aureus.
Assay in all cases: ≥ marks a high value that may be exact or a test limit, other limits are often not marked, values filed in µg/mL are converted to µM
Test [1] deals with Escherichia coli ATCC 25922.
The subject of test [2] is Staphylococcus aureus ATCC 29213.
The subject of test [3] is Pseudomonas aeruginosa ATCC 27853.
For test [4], the system named is Staphylococcus epidermidis ATCC 12228.
In test [5] the test system is Pseudomonas aeruginosa PAO1.

For `CC[C@H](C)[C@H](NC(=O)CN)C(=O)NCC(=O)N[C@@H](C)C(=O)N[C@H](C(=O)N[C@@H](CC(C)C)C(=O)N[C@@H](CCCCN)C(=O)N[C@H](C(=O)N[C@@H](CC(C)C)C(=O)N[C@H](C(=O)N[C@H](C(=O)NCC(=O)N[C@@H](CC(C)C)C(=O)N1CCC[C@H]1C(=O)N[C@@H](C)C(=O)N[C@@H](CS)C(=O)N[C@H](C(=O)N[C@@H](CO)C(=O)N[C@@H](Cc1c[nH]c2ccccc12)C(=O)N[C@@H](CS)C(=O)N[C@@H](CCCCN)C(=O)N[C@@H](CCCN=C(N)N)C(=O)N[C@@H](CCCCN)C(=O)N[C@@H](CCCN=C(N)N)C(=O)N[C@@H](CCC(N)=O)C(=O)N[C@@H](CCC(N)=O)C(=O)O)[C@@H](C)CC)[C@@H](C)O)[C@@H](C)O)C(C)C)C(C)C` [GIGAVLKVLTTGLPACISWCKRKRQQ], the MIC in test [1] is 10 µM (≈ 28.3 µg/mL); in the test with Escherichia coli it was 20 µM (≈ 56.5 µg/mL); in test [2] it was over 40 µM.
Take `CC(C)C[C@H](NC(=O)[C@H](C)NC(=O)[C@H](CCCCN)NC(=O)[C@H](Cc1c[nH]c2ccccc12)NC(=O)[C@H](CC(C)C)NC(=O)[C@H](CCCCN)NC(=O)[C@H](C)NC(=O)[C@H](CC(C)C)NC(=O)[C@H](C)NC(=O)[C@H](CCCCN)NC(=O)[C@H](C)NC(=O)[C@H](CC(C)C)NC(=O)[C@H](C)NC(=O)[C@@H](N)CCCCN)C(=O)N[C@@H](C)C(=O)N[C@@H](CCCCN)C(=O)N[C@@H](C)C(=O)N[C@@H](C)C(N)=O` [KALAKALAKLWKALAKAA]: the MIC is 6 µM (≈ 11.2 µg/mL) in the test with Escherichia coli, 24 µM (≈ 44.8 µg/mL) against Pseudomonas aeruginosa and 1.5 µM (≈ 2.8 µg/mL) in the test with Staphylococcus aureus.
As to `NCC(=O)N[C@@H](CCCN=C(N)N)C(=O)N[C@@H](CCCN=C(N)N)C(=O)N1CCC[C@H]1C(=O)N[C@@H](CCCN=C(N)N)C(=O)N1CCC[C@H]1C(=O)N[C@@H](CCCN=C(N)N)C(=O)N1CCC[C@H]1C(=O)N[C@@H](CCCN=C(N)N)C(=O)N1CCC[C@H]1C(=O)N[C@@H](Cc1c[nH]c2ccccc12)C(=O)N[C@@H](Cc1c[nH]c2ccccc12)C(=O)N[C@@H](Cc1c[nH]c2ccccc12)C(N)=O` [GRRPRPRPRPWWW], the MIC in test [1] worked out at 20 µM (≈ 36 µg/mL); in test [3], 80 µM (≈ 144 µg/mL); in test [2], 40 µM (≈ 72.1 µg/mL).
Turning to `CC(C)C[C@H](NC(=O)[C@H](C)NC(=O)[C@H](CC(C)C)NC(=O)[C@H](CCCCN)NC(=O)[C@H](CC(C)C)NC(=O)[C@H](C)NC(=O)[C@H](CC(C)C)NC(=O)[C@@H](N)CCCCN)C(=O)N[C@@H](CCCCN)C(=O)N[C@@H](C)C(=O)N[C@@H](Cc1c[nH]c2ccccc12)C(=O)N[C@@H](CCCCN)C(=O)N[C@@H](C)C(=O)N[C@@H](C)C(=O)N[C@@H](CC(C)C)C(=O)N[C@@H](CCCCN)C(=O)N[C@@H](CC(C)C)C(=O)N[C@@H](C)C(N)=O` [KLALKLALKAWKAALKLA], the values for the MIC with Escherichia coli, against Pseudomonas aeruginosa and in the test on Staphylococcus aureus were 3.68 µM (≈ 7.17 µg/mL), 14.7 µM (≈ 28.7 µg/mL) and 1.84 µM (≈ 3.58 µg/mL), respectively.
Turning to `CC[C@H](C)[C@H](NC(=O)CN)C(=O)NCC(=O)N[C@@H](CCCCN)C(=O)N[C@@H](Cc1ccccc1)C(=O)N[C@@H](CC(C)C)C(=O)N[C@@H](Cc1cnc[nH]1)C(=O)N[C@@H](CO)C(=O)N[C@@H](C)C(=O)N[C@@H](CCCCN)C(=O)N[C@@H](CCCCN)C(=O)N1CCC[C@H]1C(=O)NCC(=O)N[C@@H](CCCCN)C(=O)N[C@@H](C)C(=O)N[C@@H](Cc1ccccc1)C(=O)N[C@H](C(=O)NCC(=O)N[C@@H](CCC(=O)O)C(=O)N[C@H](C(=O)N[C@@H](CCSC)C(=O)N[C@@H](CC(N)=O)C(=O)N[C@@H](CO)C(N)=O)[C@@H](C)CC)C(C)C` [GIGKFLHSAKKPGKAFVGEIMNS], the MIC in test [1] is 26.5 µM (≈ 64 µg/mL); in test [3], 53 µM (≈ 128 µg/mL); in test [2] it was 106 µM (≈ 256 µg/mL).
Take `CC[C@H](C)[C@H](NC(=O)CN)C(=O)N[C@@H](CCCCN)C(=O)N[C@@H](CCCCN)C(=O)N[C@@H](Cc1c[nH]c2ccccc12)C(=O)N[C@@H](CC(C)C)C(=O)N[C@@H](Cc1cnc[nH]1)C(=O)N[C@@H](CO)C(=O)N1CCC[C@H]1C(=O)N[C@@H](CCCCN)C(=O)N[C@@H](CCCCN)C(=O)N1CCC[C@H]1C(=O)NCC(=O)N[C@@H](CCCCN)C(=O)N[C@@H](CCCCN)C(=O)N[C@@H](Cc1ccccc1)C(=O)N[C@H](C(=O)N[C@@H](CCCCN)C(=O)N[C@@H](CCCCN)C(=O)N[C@H](C(=O)N[C@@H](CCSC)C(=O)N[C@@H](CC(N)=O)C(=O)N[C@@H](CO)C(N)=O)[C@@H](C)CC)C(C)C` [GIKKWLHSPKKPGKKFVKKIMNS]: the values for the MIC in test [1] and in test [4] were over 80 µM and 10 µM (≈ 26.8 µg/mL), respectively.
The compound `CC(C)C[C@H](NC(=O)[C@H](CC(N)=O)NC(=O)[C@H](Cc1c[nH]c2ccccc12)NC(=O)[C@H](CCCN=C(N)N)NC(=O)[C@H](C)NC(=O)[C@H](CCCCN)NC(=O)[C@H](CCCCN)NC(=O)CNC(=O)[C@H](CC(C)C)NC(=O)[C@H](Cc1ccc(O)cc1)NC(=O)[C@H](Cc1ccc(O)cc1)NC(=O)CNC(=O)[C@H](Cc1c[nH]c2ccccc12)NC(=O)[C@H](CO)NC(=O)[C@H](CO)NC(=O)[C@H](Cc1c[nH]c2ccccc12)NC(=O)[C@H](CC(C)C)NC(=O)[C@H](CCCCN)NC(=O)[C@@H](NC(=O)[C@@H](NC(=O)[C@H](CC(C)C)NC(=O)[C@@H](N)CC(=O)O)[C@@H](C)O)[C@@H](C)O)C(=O)O` [DLTTKLWSSWGYYLGKKARWNL] had an MIC in test [4] of 25 µM (≈ 67.2 µg/mL). This lies in the double-digit micromolar range.
As for `CC[C@H](C)[C@H](NC(=O)CN)C(=O)NCC(=O)N[C@@H](CCCCN)C(=O)N[C@@H](Cc1ccccc1)C(=O)N[C@@H](CC(C)C)C(=O)N[C@@H](Cc1cnc[nH]1)C(=O)N[C@H](C(=O)N[C@@H](CC(C)C)C(=O)N[C@@H](CCCCN)C(=O)N[C@H](C(=O)N[C@@H](Cc1ccccc1)C(=O)NCC(=O)N[C@@H](CCCCN)C(=O)N[C@@H](CCCCN)C(=O)N[C@@H](Cc1c[nH]c2ccccc12)C(=O)N[C@H](C(=O)NCC(=O)N[C@@H](CCC(=O)O)C(=O)N[C@H](C(=O)N[C@@H](CCSC)C(=O)N[C@@H](CC(N)=O)C(=O)N[C@@H](CO)C(N)=O)[C@@H](C)CC)C(C)C)[C@@H](C)O)[C@@H](C)O` [GIGKFLHTLKTFGKKWVGEIMNS], the MIC in the test on Escherichia coli, with Pseudomonas aeruginosa and in the test on Staphylococcus aureus was 13 µM (≈ 33.7 µg/mL) each time.
In the case of `CC[C@H](C)[C@H](NC(=O)[C@H](Cc1ccccc1)NC(=O)[C@H](CO)NC(=O)[C@H](CCCCN)NC(=O)[C@H](Cc1c[nH]c2ccccc12)NC(=O)[C@@H](N)CCCCN)C(=O)N[C@@H](CCCCN)C(=O)N[C@@H](CCCCN)C(=O)N[C@@H](CCCN=C(N)N)C(=O)N[C@H](C(=O)N[C@@H](CO)C(=O)N[C@@H](CCCCN)C(=O)N[C@@H](Cc1ccccc1)C(=O)N[C@@H](CC(C)C)C(=O)N[C@@H](Cc1cnc[nH]1)C(=O)N[C@@H](CO)C(=O)N[C@@H](C)C(=O)N[C@@H](CCCCN)C(=O)N[C@@H](CCCCN)C(=O)N[C@@H](Cc1ccccc1)C(N)=O)[C@@H](C)O` [KWKSFIKKRTSKFLHSAKKF], the MIC against Pseudomonas aeruginosa is over 20 µM.
Turning to `CC[C@H](C)[C@H](NC(=O)[C@H](CCCN=C(N)N)NC(=O)[C@@H](NC(=O)[C@H](CCCN=C(N)N)NC(=O)[C@H](Cc1c[nH]c2ccccc12)NC(=O)[C@H](Cc1ccccc1)NC(=O)[C@H](Cc1ccccc1)NC(=O)[C@@H]1CCCN1)[C@@H](C)CC)C(=O)N[C@@H](CCCN=C(N)N)C(=O)N[C@@H](CCCN=C(N)N)C(N)=O` [PFFWRIRIRR], the MIC in test [1] and in test [5] was 5.53 µM (≈ 7.99 µg/mL) each time.

What is called MIC is the lowest concentration that inhibits growth of the organism. Read a low MIC as inhibition by little substance.
